Reference: patent US9426996B2, “Use of benzoxaboroles as volatile antimicrobial agents on meats, plants, or plant parts” (AgroFresh Inc., priority 2013, dated 2016)

Tested on: Botrytis cinerea
Assay: in vitro inhibition assay for volatile antimicrobial compounds (12-well PDA plates)
Type: cell-based
Conditions: 14 days at 4° C.; for lowest rate with 100% control of Botrytis cinerea: in vitro, volatile
Experimental: 12-Well (7 milliliter (mL volume per well) microtiter plates are used for the in vitro inhibition assay for volatile antimicrobial compounds. A 3-mL volume of full-strength Potato Dextrose Agar (PDA) is added to each well. After cooling, 1 microliter (μL) of 1×10^6 per mL Botrytis cinerea spore suspension is spot pipetted to the center of the agar. For the first experiment, inoculated plates are allowed to germinate for 5 days at 4° C. For the second experiment, plates are inoculated immediately prior to volatile fungicide treatment. Small Whatman #1 filter disks (Cat. No. 1001-0155) are placed, in duplicate, on the underside of a polyethylene PCR plate sealing film.
The acetone is permitted to evaporate for 5 minutes. The headspace around the Botrytis cinerea inoculum is then sealed inside the well by the film with the adhering disk containing the fungicide. Plates are inverted, placed over the treated disks and sealed to prevent any of the chemical from flaking from the disk and falling onto the inoculated agar. After 14 days of storage at 4° C., cultures are evaluated for percent growth relative to control. Regardless of whether the spores had germinated for 5 days, or if the treatment commenced soon after inoculation of the plates (˜15 minutes); there is 100% control of the fungal pathogen down to 0.005 mg.
A total of 14 antimicrobial compounds are tested using the in vitro inhibition assay described in Example 1. All 14 compounds are applied to the Whatman disks, in duplicate, in a dose dependent manner (0.31 to 0.0006 mg/disk). […] Other compounds, such as Compound C, Compound D, and Compound E conferred 100% control down to 0.023, 0.04, and 0.08 mg/disk, respectively. Results of nine compounds are summarized in Table 2, where the other five compounds show no detected activity in the ranges tested. […]

| Compound | Botrytis inhibition % (in vitro) (0.0006 mg per disk) [%] | Botrytis inhibition % (in vitro) (0.001 mg per disk) [%] | Botrytis inhibition % (in vitro) (0.0024 mg per disk) [%] | Botrytis inhibition % (in vitro) (0.005 mg per disk) [%] | Botrytis inhibition % (in vitro) (0.01 mg per disk) [%] | Botrytis inhibition % (in vitro) (0.023 mg per disk) [%] | Botrytis inhibition % (in vitro) (0.04 mg per disk) [%] | Botrytis inhibition % (in vitro) (0.08 mg per disk) [%] | Botrytis inhibition % (in vitro) (0.16 mg per disk) [%] | Botrytis inhibition % (in vitro) (0.31 mg per disk) [%] | lowest rate with 100% control of Botrytis cinerea [mg/disk] |
| --- | --- | --- | --- | --- | --- | --- | --- | --- | --- | --- | --- |
| Fc1ccc2c(c1)COB2c1ccccc1 [Compound C] | 0 | 15 | 43 | 63 | 83 | 100 | 100 | 100 | 100 | 100 | 0.023 |
| Fc1ccc2c(c1)COB2c1ccsc1 [Compound D] | 0 | 0 | 15 | 38 | 70 | 80 | 100 | 100 | 100 | 100 | 0.04 |
| Fc1ccc2c(c1)COB2/C=C/c1ccccc1 [Compound E] | 13 | 13 | 28 | 38 | 69 | 79 | 79 | 100 | 100 | 100 | 0.08 |
| FC(F)(F)c1ccc2c(c1)COB2c1ccccc1 [F] | 0 | 0 | 0 | 8 | 8 | 10 | 18 | 40 | 53 | 70 |  |
| FC(F)(F)c1ccc2c(c1)COB2c1ccsc1 [G] | 0 | 0 | 0 | 0 | 0 | 3 | 13 | 43 | 78 | 100 |  |
| OB1OCc2cc(C(F)(F)F)ccc21 [H] | 0 | 0 | 0 | 0 | 3 | 18 | 38 | 55 | 80 | 85 |  |
| OB1OCCc2ccccc21 [J] | 0 | 0 | 0 | 0 | 0 | 0 | 5 | 8 | 13 | 50 |  |
| COc1cccc2c1B(O)OC2 [K] | 0 | 0 | 0 | 0 | 0 | 0 | 0 | 5 | 29 | 48 |  |
